SMILES strings stand for the structures.

This experiment has as its target T1, At-pGlcT (At-pGlcTNTD) (Arabidopsis thaliana, UniProt B9DGP1).
T1 construct: gene At5g16150; plastid transit peptide (residues 1-82) replaced by E. coli PhoR residues 1-54 (membrane-targeting NTD); C-terminal 6xHis tag kept; expressed in E. coli sugar-uptake mutants, intact-cell uptake
T1 sequence (B9DGP1 83-546): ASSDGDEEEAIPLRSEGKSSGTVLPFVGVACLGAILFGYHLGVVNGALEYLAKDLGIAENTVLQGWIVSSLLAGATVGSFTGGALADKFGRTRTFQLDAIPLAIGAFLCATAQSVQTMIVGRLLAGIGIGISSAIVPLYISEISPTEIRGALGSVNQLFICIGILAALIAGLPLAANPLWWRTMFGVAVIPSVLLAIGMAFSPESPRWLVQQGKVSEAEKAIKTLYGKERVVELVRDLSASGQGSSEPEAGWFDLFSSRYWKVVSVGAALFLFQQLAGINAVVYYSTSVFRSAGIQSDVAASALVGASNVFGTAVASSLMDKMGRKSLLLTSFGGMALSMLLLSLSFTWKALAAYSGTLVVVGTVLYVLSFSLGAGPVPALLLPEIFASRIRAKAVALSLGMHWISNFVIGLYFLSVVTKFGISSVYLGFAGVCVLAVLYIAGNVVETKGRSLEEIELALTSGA
Description: competition with […]-ribose uptake in E. coli ΔrbsC ΔxylH ΔalsC. Type of experiment: cell-based. To be noted: 1 mM 14C-ribose, 10 mM unlabelled sugar, pH 7, 37 °C, 30 min, competitive.

Take `OCC1(O)OC[C@@H](O)[C@@H](O)[C@@H]1O` (some centres unmarked) [fructose]: the “inhibition of 14C-ribose uptake at 10 mM” value (3H-fructose uptake also measured) is listed as “its presence also reduced the uptake of the radioactively labeled ribose”.

For the molecule `OC[C@H]1OC(O)[C@H](O)[C@@H](O)[C@@H]1O` (some centres unmarked) [glucose], the “inhibition of 14C-ribose uptake at 10 mM” value (14C-glucose uptake also measured) was “but also glucose was an equally efficient suppressor”.

Source of the values: paper PMC12589546, “A plastid carbohydrate carrier mediates ribose recycling from nucleotide catabolism and glucose export from starch degradation” (Nature Communications, 2025).
